Measured values: ChEMBL document CHEMBL5137099, “Discovery of Novel cccDNA Reducers toward the Cure of Hepatitis B Virus Infection” (J Med Chem, 2022)
pIC50: −log10 of the molar value.

Columns and labels:
[1] = Cmax in C57BL/6 mouse at 5 mg/kg, po by LC-MS/MS analysis; assay type: ADME, organism-based; design: dose 5 mg/kg, route po; conditions: in vivo
[2] = Permeability of the compound by PAMPA analysis; assay type: ADME; conditions: read-out: permeability
[3] = Aqueous solubility of the compound; assay type: physicochemical; conditions: buffer
[4] = Dose normalized Cmax in C57BL/6 mouse at 5 mg/kg, po by LC-MS/MS analysis; assay type: ADME, organism-based; conditions: in vivo
[5] = system: Hepatitis B virus; assay: Antiviral activity against HBV infected in human primary hepatocyte cells assessed as reduction in HBV cccDNA production by measuring inhibition of HBsAg secretion measured after 48 hrs by ELISA; assay type: functional, organism-based
[6] = Dose normalized Cmax in C3H/J mouse at 5 mg/kg, po by LC-MS/MS analysis; assay type: ADME, organism-based; conditions: in vivo
[7] = Metabolic stability in human microsomes assessed as clearance; assay type: ADME, Microsome; conditions: read-out: CLH
[8] = Oral bioavailability in C57BL/6 mouse at 5 mg/kg by LC-MS/MS analysis; assay type: ADME, organism-based; conditions: in vivo
[9] = AUC (0 to infinity) in C3H/J mouse at 5 mg/kg, po by LC-MS/MS analysis; assay type: ADME, organism-based; design: time infinity, dose 5 mg/kg, route po; conditions: in vivo
[10] = Tmax in C3H/J mouse plasma at 5 mg/kg, po by LC-MS/MS analysis; assay type: ADME, organism-based
[11] = Volume of distribution at steady state in C57BL/6 mouse at 2 mg/kg, iv by LC-MS/MS analysis; assay type: ADME, organism-based; conditions: in vivo, read-out: Vdss
[12] = Metabolic stability in mouse hepatocytes assessed as intrinsic clearance; assay type: ADME, cell-based, Hepatocyte; conditions: read-out: CLH
[13] = Clearance in C57BL/6 mouse at 2 mg/kg, iv by LC-MS/MS analysis; assay type: ADME, organism-based; conditions: in vivo
[14] = Dose normalized AUC (0 to 24 hrs) in C57BL/6 mouse at 2 mg/kg, iv by LC-MS/MS analysis; assay type: ADME, organism-based; conditions: in vivo
[15] = AUC (0 to infinity) in C57BL/6 mouse at 30 mg/kg, po by LC-MS/MS analysis; assay type: ADME, organism-based; design: time infinity, dose 30 mg/kg, route po; conditions: in vivo
[16] = system: Hepatitis B virus; assay: Antiviral activity against HBV infected in human HepDES19 cells assessed as reduction in HBV cccDNA production by measuring inhibition of HBeAg secretion incubated for 5 days by ELISA; assay type: functional, organism-based; conditions: HepDES19, 120 h
[17] = AUC (0 to infinity) in C57BL/6 mouse at 2 mg/kg, iv by LC-MS/MS analysis; assay type: ADME, organism-based; design: time infinity, dose 2 mg/kg, route iv; conditions: in vivo
[18] = Dose normalized AUC (0 to 24 hrs) in C3H/J mouse at 5 mg/kg, po by LC-MS/MS analysis; assay type: ADME, organism-based; conditions: in vivo
[19] = system: Hepatitis B virus; assay: Antiviral activity against HBV infected in human HepG2 cells assessed as reduction in HBeAg secretion incubated for 5 days by counter screen assay; assay type: functional, organism-based; conditions: HepG2, 120 h
[20] = Tmax in C57BL/6 mouse at 30 mg/kg, po by LC-MS/MS analysis; assay type: ADME, organism-based; conditions: in vivo
[21] = AUC (0 to infinity) in C57BL/6 mouse at 5 mg/kg, po by LC-MS/MS analysis; assay type: ADME, organism-based; design: time infinity, dose 5 mg/kg, route po; conditions: in vivo
[22] = Elimination half life in C57BL/6 mouse at 5 mg/kg, po by LC-MS/MS analysis; assay type: ADME, organism-based; conditions: in vivo, read-out: beta t1/2 (converted)
[23] = Octanol-aqueous buffer distribution coefficient, log D of the compound at pH 7.4 by CAMDIS assay; assay type: physicochemical
[24] = Elimination half life in C3H/J mouse at 5 mg/kg, po by LC-MS/MS analysis; assay type: ADME, organism-based; conditions: in vivo, read-out: beta t1/2 (converted)
[25] = Dose normalized AUC (0 to 24 hrs) in C57BL/6 mouse at 5 mg/kg, po by LC-MS/MS analysis; assay type: ADME, organism-based; conditions: in vivo
[26] = Cmax in C57BL/6 mouse at 30 mg/kg, po by LC-MS/MS analysis; assay type: ADME, organism-based; design: dose 30 mg/kg, route po; conditions: in vivo
[27] = Elimination half life in C57BL/6 mouse at 30 mg/kg, po by LC-MS/MS analysis; assay type: ADME, organism-based; conditions: in vivo, read-out: beta t1/2 (converted)
[28] = Tmax in C57BL/6 mouse at 5 mg/kg, po by LC-MS/MS analysis; assay type: ADME, organism-based; conditions: in vivo
[29] = Elimination half life in C57BL/6 mouse at 2 mg/kg, iv by LC-MS/MS analysis; assay type: ADME, organism-based; conditions: in vivo, read-out: beta t1/2 (converted)
[30] = Dose normalized AUC (0 to 24 hrs) in C57BL/6 mouse at 30 mg/kg, po by LC-MS/MS analysis; assay type: ADME, organism-based; conditions: in vivo
[31] = Cmax in C3H/J mouse plasma at 5 mg/kg, po by LC-MS/MS analysis; assay type: ADME, organism-based; design: dose 5 mg/kg, route po

O=C(O)C1CCN(c2ccc3c(=O)c4cccc(Cl)c4oc3c2)C1 (racemic)
Cmax [1]: 1650 ng/mL | Papp [2]: 2.27 ×10⁻⁶ cm/s | solubility [3]: < 435 µg/mL | Cmax/dose [4]: 331 ng/mL | pIC50 [5]: 5.87 | Cmax/dose [6]: 116 ng/mL | CLint scaled [7]: 6.2 mL/min/kg | bioavailability [8]: 56% | AUC(0-inf) [9]: 761 ng·h/mL | Tmax [10]: 0.5 h | Vd [11]: 0.65 L/kg | CLint scaled [12]: 32.3 mL/min/kg | clearance [13]: 17.6 mL/min/kg | AUC/dose [14]: 937 (ng·h/mL)/(mg/kg) | AUC(0-inf) [15]: 31400 ng·h/mL | pIC50 [16]: 5.76 | AUC(0-inf) [17]: 1900 ng·h/mL | AUC/dose [18]: 171 (ng·h/mL)/(mg/kg) | pIC50 [19]: < 4.30 | Tmax [20]: 0.5 h | AUC(0-inf) [21]: 2680 ng·h/mL | half-life [22]: 10.2 h | logD [23]: 1.12 | half-life [24]: 1.11 h | AUC/dose [25]: 500 ng·h/mL | Cmax [26]: 17300 ng/mL | half-life [27]: 4.26 h | Tmax [28]: 0.5 h | half-life [29]: 2.1 h | AUC/dose [30]: 151 ng·h/mL | Cmax [31]: 580 ng/mL
